From patent US20240238278A1, “Pharmaceutical Composition for Preventing or Treating Fibrosis” (Daewoong Pharmaceutical Co., Ltd., priority 2021, published 2024)

Columns and labels:
[1] = tested on: animal model of pulmonary fibrosis; test: Lung function evaluation (SpO2) in BLM animal model; format: in vivo, mouse; details: BLM mice, PO, day 21, first component 10 mg/kg, NIN 60 mg/kg, PID 200 mg/kg; for SpO2 Differance / SpO2 Rate of increase: vs vehicle
Method: (§1) 70-100 uL of BLM solution (bleomycin 1-3 mg/kg) was administered to a lung of the acclimatized experimental animals using a catheter for 5 days or more. In accordance with the purpose of the test, the test drug was administered 7 days after BLM administration, and the drug was orally administered for 2 weeks until the 21st day of BLM administration.
This lung function evaluation is the most direct and important evaluation index that has the greatest influence on the symptoms and quality of life of patients with pulmonary fibrosis, and is an experiment that can most directly show the effect of improving lung function in an animal model of pulmonary fibrosis by measuring the oxygen concentration in the body.
On the 21st day, it was measured with a SpO2 measuring device (Berry, Veterinary Pulse Oximeter) via the abdominal side of the mouse, and the results are shown in Table 5 and FIG. 3.

[2] = tested on: animal model of pulmonary fibrosis; test: Measurement of total collagen content in lung (INSOLUBLE Collagen Assay); format: in vivo, mouse; details: BLM mice, PO, day 21, n 9; first component 10 mg/kg, NIN 60 mg/kg, PID 200 mg/kg
Method: as §1
In this experimental example, analysis was performed using INSOLUBLE Collagen Assay (Biocolor, S2000). After sacrifice on the 21st day, the cryopreserved lung tissue was pulverized by adding 100 uL of Fragmentation Reagent, and then, 100 uL of 37% HCl was added and incubated at 65° C. for 3 hours. The contents of the tube were shaken at 30 minute intervals to aid tissue disintegration. After centrifugation, the concentration was adjusted to 100 μL and collagen staining was proceeded to prepare a sample. Absorbance was measured at 560 nm.

[3] = tested on: animal model of pulmonary fibrosis; test: Histopathology (Ashcroft score) analysis, Fibrotic Index; format: in vivo, mouse; details: BLM mice, PO, day 21; first component 10 mg/kg, PID 200 mg/kg
Method: as §1
The degree of fibrosis and inflammation of the lung tissue were visually observed through a microscope, and the degree of fibrosis of lung tissue was measured with a Fibrotic Index according to normalized criteria. The higher the Fibrotic Index value, the more severe the degree and symptom of fibrosis. It is interpreted that as the value is lower, the symptom is alleviated.
On the 21st day, lung tissue was separated and stained using H&E and MT stain, and observed under a microscope at 200× magnification. The observed results were scored by Ashcroft (Hubner et al., 2008). The fibrotic index was calculated by dividing the sum of the adjusted Ashcroft field scores by the number of fields tested, and shown in Table 7 and FIG. 4.

[4] = tested on: animal model of pulmonary fibrosis; test: Inflammation cell count analysis in BALF; format: in vivo; details: BLM mice, PO, day 21; first component 10 mg/kg, NIN 60 mg/kg, PID 200 mg/kg
Method: as §1
At the sacrifice on the 21st day of administration, BALF (Bronchoalveolar lavage fluid) cells obtained through airway washing of mice were diluted with 1.05×PBS and attached to a slide, and then the slide was immersed and removed for 30 seconds in the order of 1, 2, 3 diff quick stain solution, and stained. It was counted based on 500 cells. Macrophages are the largest in size, mononuclear, and stained blue. Neutrophils and eosinophils form polynuclear cells, but eosinophils are stained red with eosin and distinguished from neutrophils. Lymphocytes have very less cytoplasm and are small in size as monocytes.

[5] = Measurement of change in body weight in BLM animal model; format: in vivo, mouse; design: unit not given here; details: BLM mice, first component 10 mg/kg, NIN 60 mg/kg, PID 200 mg/kg
Method: as §1
The body weight was measured once every 0, 7, 14, 17, and 21 days for 3 weeks, and from the 14th day when the drug effect began to be noticeable after the administration, it was measured every 3 days.

[6] = tested on: DHLF cell line; test: Non-clinical anti-fibrotic efficacy: Western blotting of TGF-β treated DHLF cell line; format: cell-based; details: TGF-β 10 ng/ml, 72 hours
Method: 10 mM of the first component was diluted with DMSO so as to be to 100 uM. It was diluted with DMSO so as to be 10, 3, 1 uM, and 10 mM of the second component (NIN) was diluted with DMSO to be 50 nM.
A DHLF cell line (FGM™-2 Bullet Kit™, 10% FBS), which is a lung fibrosis cell line, was prepared, and cultured in a T75 Easy Flask Filter at 37° C. and 5% CO2 using FBM medium. The cultured DHLF cell line was treated with 10 ng/mL of TGF-β and the test drug alone or in combination, cultured for 72 hours, then the media was removed, the protein was extracted, and the extracted protein was quantified using the BCA Protein Assay Kit. Based on the quantitative value of each extracted protein, 10 to 20 ug of protein was subjected to Western blotting. The protein after running was transferred to the PVDF membrane. After TBS-T washing 3 times, each PVDF membrane was treated with 1 mL of ECL solution, and then the protein expression level was measured using an AI680 imager. Each band value was calculated as a numerical value normalized compared to β-actin through ImageJ, and is shown in Tables 2 and 3 and FIGS. 1 and 2 below.

[7] = Pharmacokinetic test after single oral administration in ICR mice; format: in vivo; details: mouse, blood, ICR mice (male), 10 mg/kg
Method: The pharmacokinetic parameters were calculated using Excel® and WinNonlin6.1 software for the blood drug concentration according to the change over time obtained through LC-MS/MS, and changes in the blood concentration of the first component are shown in Table 11 and FIG. 9.

[8] = Table 2, first component 10 ug/ml alone
[9] = Table 3, first component 5 ug/ml alone

| Structure (SMILES) | SpO2 Average value [1] | SpO2 Differance [1] | SpO2 Rate of increase [1] [%] | total collagen content in lung (hydroxyproline value, ratio compared with normal group) [2] | Fibrotic Index (±SEM) [3] | Eosinophil count in BALF [4] | Lymphocyte count in BALF [4] | Macrophage count in BALF [4] | Neutrophil count in BALF [4] | total cell in BALF [4] | change in body weight ([5]; Day 0) | change in body weight ([5]; Day 7) | change in body weight ([5]; Day 14) | change in body weight ([5]; Day 17) | change in body weight ([5]; Day 21) | further results |
| --- | --- | --- | --- | --- | --- | --- | --- | --- | --- | --- | --- | --- | --- | --- | --- | --- |
| Cc1ccc(=O)n(-c2ccccc2)c1 [Second component (PID), Pirfenidone] | 81.7 | 5.7 | 7 | 156 | 3.7 (±0.7) | 0 | 6 | 55 | 12 | 74 10^4 | 0.0 | −10.2 | −22.7 | −18.1 | −16.5 | SpO2 Rate of increase ([1]; listed as PID): 7% |
| O[C@H]1CCCN[C@@H]1CCCn1cnc2c(Cl)c(Cl)ccc21 [First component] | 79.1 | 3.1 | 4 | 228 | 4.6 (±0.6) | 0 | 7 | 60 | 17 | 84 10^4 | 0.0 | −10.1 | −22.7 | −22.2 | −20.5 | COL1A1 Relative value (based on control) [6, 8]: 3.26; SMA-α Relative value (based on control) [6, 8]: 1.66; COL1A1 Relative value (based on control) [6, 9]: 3.84; SMA-α Relative value (based on control) [6, 9]: 3.53; AUC(0-inf) [7]: 1190 ng·h/mL; AUC(0-t) [7]: 1070 ± 210 ng·h/mL; Cmax [7]: 263 ± 32 ng/mL; Tmax [7]: 2.67 ± 1.15 h; half-life [7]: 2.5 ± 2.48 h |
